Where a name gives a salt, the structure may show the parent alone.
Assays:
[1] = molecular target: T1, mGluR 1 (Rattus norvegicus, UniProt P23385); experiment: mGluR 1 binding test with tritium-labeled ligand on rat cerebellum P2 membrane fraction; conditions: about 20 nM [3H]-6-amino-N-cyclohexyl-N,3-dimethylthiazolo[3,2-a]benzimidazole-2-carboxamide
T1 construct: Each rat (Wistar, male, 9 to 12 weeks of age) was decapitated to excise the cerebellum; from tissue; host or cells: rat (Wistar) cerebellum, P2 membrane fraction
T1 sequence (P23385 19-1199): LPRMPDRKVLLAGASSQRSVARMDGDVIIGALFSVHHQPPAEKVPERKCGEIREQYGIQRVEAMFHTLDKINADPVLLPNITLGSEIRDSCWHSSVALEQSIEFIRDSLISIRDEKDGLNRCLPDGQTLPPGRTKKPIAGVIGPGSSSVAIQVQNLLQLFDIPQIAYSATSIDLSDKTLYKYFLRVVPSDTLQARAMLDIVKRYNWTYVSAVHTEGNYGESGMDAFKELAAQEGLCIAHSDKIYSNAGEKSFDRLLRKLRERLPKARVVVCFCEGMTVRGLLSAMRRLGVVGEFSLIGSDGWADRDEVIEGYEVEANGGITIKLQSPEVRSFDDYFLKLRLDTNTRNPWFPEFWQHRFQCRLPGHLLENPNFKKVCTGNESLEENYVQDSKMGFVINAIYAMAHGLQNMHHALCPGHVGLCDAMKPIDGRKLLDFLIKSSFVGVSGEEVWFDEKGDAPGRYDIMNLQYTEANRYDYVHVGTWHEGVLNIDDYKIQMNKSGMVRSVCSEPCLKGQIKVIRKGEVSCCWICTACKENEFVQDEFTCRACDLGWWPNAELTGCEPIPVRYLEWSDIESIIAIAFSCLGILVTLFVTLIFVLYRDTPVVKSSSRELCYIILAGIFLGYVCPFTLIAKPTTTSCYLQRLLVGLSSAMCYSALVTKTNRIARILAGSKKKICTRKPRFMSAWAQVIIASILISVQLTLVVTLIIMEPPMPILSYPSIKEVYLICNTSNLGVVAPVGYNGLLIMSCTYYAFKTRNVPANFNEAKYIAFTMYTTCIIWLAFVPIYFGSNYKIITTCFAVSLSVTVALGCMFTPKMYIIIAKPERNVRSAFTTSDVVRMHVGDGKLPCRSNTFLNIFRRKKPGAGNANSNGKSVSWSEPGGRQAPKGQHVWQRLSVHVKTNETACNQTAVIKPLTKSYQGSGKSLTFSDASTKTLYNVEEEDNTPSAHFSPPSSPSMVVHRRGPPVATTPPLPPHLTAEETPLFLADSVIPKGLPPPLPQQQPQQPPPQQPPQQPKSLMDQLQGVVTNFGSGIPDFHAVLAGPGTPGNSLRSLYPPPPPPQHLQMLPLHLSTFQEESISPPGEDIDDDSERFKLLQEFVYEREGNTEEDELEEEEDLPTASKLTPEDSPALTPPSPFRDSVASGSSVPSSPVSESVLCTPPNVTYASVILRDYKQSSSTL
Procedure: (Test Methods) 1. The mGluR 1 Binding Activity
Effect of the compounds of the invention upon mGluR 1 was verified in accordance with the method described in the Patent Reference 3.
(Preparation of Rat Cerebellum P2 Membrane Fraction)
Each rat (Wistar, male, 9 to 12 weeks of age) was decapitated to excise the cerebellum. After weight measurement, this was homogenized in 7 to 10 volumes of 0.32 M sucrose solution. After 15 minutes of centrifugation at 900×g, the supernatant was preserved in a container (in ice). The precipitate was again homogenized in 0.32 M sucrose solution of the same volume of the first time and centrifuged at 900×g for 15 minutes. The supernatant obtained this time was combined with the previously obtained supernatant and centrifuged at 15,000×g for 20 minutes. The precipitate was homogenized in 5 mM Tris-HCl, pH 7.4, and centrifuged at 15,000×g for 15 minutes. This step was repeated again. The precipitate was homogenized in 50 mM Tris-HCl, pH 7.4, and centrifuged at 15,000×g for 15 minutes. The precipitate was homogenized in an appropriate amount of 50 mM Tris-HCl, pH 7.4, subdivided into small portions and then preserved at −80° C.
As the assay buffer, 50 mM Tris-HCl, 2.5 mM CaCl2, pH 7.4, was used. [^3H]-(6-Amino-N-cyclohexyl-N,3-dimethylthiazolo[3,2-a]benzimidazole-2-carboxamide) (specific activity; 81 Ci/mmol; Amersham), a test compound and about 0.1 mg of the rat cerebellum P2 membrane fraction were suspended to a total volume of 100 μl in a 96 well microplate and then incubated at room temperature (about 25° C.) for 45 minutes. Completion of the incubation was carried out by a filtration method using Whatman GF/B filter. Quantity of the radioactivity was measured using a liquid scintillation counter. About 20 nM of [^3H]-6-amino-N-cyclohexyl-N,3-dimethylthiazolo[3,2-a]benzimidazole-2-carboxamide was used in the competitive test, and the specific binding was defined as a portion of the total binding, which was replaced by 10 μM of 6-{[(2-methoxyethyl)amino]methyl}-N-neopentylthiazolo[3,2-a]benzimidazole-2-carboxamide (Patent Reference 3, the compound described in Example 75). Evaluation of the test compound was carried out by calculating the ratio of binding inhibition upon the specific binding.
Determination of protein was carried out using BIO-RAD DC protein assay (BIO-RAD). Bovine serum albumin was used as the standard substance.

[2] = system: STZ-loaded mice; experiment: Streptozotocin (STZ)-induced diabetes model, tail pinch test; assay type: in vivo, ICR mice; conditions: at 10 mg/kg
Procedure: • Thomsen C., Mulvihill E. R., Haldeman B., Pickering D. S., Hampson D. R. and Suzdak P. D., A pharmacological characterization of the mGluR 1 alpha subtype of the metabotropic glutamate receptor expressed in a cloned baby hamster kidney cell line., Brain Res., Aug. 13, 1993, 619(1-2), 22-8 2. Inhibitory Effect Upon Neuropathic Pain 1) Streptozotocin (to be Referred to as STZ Hereinafter)—Induced Diabetes Model
The test was carried out by modifying a part of a report (Pharmacol. Biochem. Behav., 39, 541-544, 1991). At a dose of 200 mg/kg, STZ was intraperitoneally administered to each of ICR mice of 4 weeks of age. A preliminary test of a tail pinch test was carried out in the afternoon of the day 2 weeks after the administration, and only animals showing a reaction latency of 3 seconds or less were submitted to the next day's test. Each compound was loaded by 10 mg/kg of oral administration, and the tail pinch test was carried out after 30 minutes of the administration to calculate a difference from the value of latency measured in the preliminary test.
In this connection, normal mice unloaded with STZ show a reaction latency of 6 to 7 seconds in average by this test. STZ-loaded mice having a reaction latency of 3 seconds or less in which distinct reduction in the pain threshold was observed were used in the test of this time. […]

[3] = system: Salmonella typhimurium TA 98 and TA 100; experiment: Reverse mutation test using a bacterium (genetic toxicity); assay type: cell-based; conditions: pre-incubation method, presence and absence of metabolic activation system (S9Mix)
Procedure: Gene mutation inducing ability of the compounds of the invention was verified by a reverse mutation test which uses a bacterium.
The test was carried out in accordance with the genetic toxicity test guideline of drugs (Iyakushin No. 1604, Nov. 1, 1999) by a pre-incubation method in the presence and absence of a metabolic activation system. However, Salmonella typhimurium TA 98 and TA 100 alone were used as the test strains.
(Reverse Mutation Test Using a Bacterium)
A 0.5 ml portion of 0.1 M sodium phosphate buffer (pH 7.4), 0.1 ml of an overnight-cultured test strain suspension and 0.1 ml of a solution of a substance to be tested were put into a test tube and shaken (60 reciprocation/min) at 37° C. for 20 minutes, and then 2 ml of soft agar kept at about 45° C. was added thereto and the mixture was spread on a minimal glucose agar plate medium (plate) and cultured at 37° C. for about 48 hours. In the case of the metabolic activation test, the same procedure was carried out by adding the same volume of S9Mix instead of the 0.1 M sodium phosphate buffer. […]
The number of colonies formed on the plate after 48 hours of culturing was counted. […]

[4] = system: L5/L6 spinal nerves-ligated rat; experiment: L5/L6 spinal nerves-ligated rat, von Frey hair (VFH) test; assay type: in vivo, SD rats; conditions: 30 mg/kg oral administration; VFH test 30 minutes after administration
Procedure: 2) L5/L6 Spinal Nerves-Ligated Rat
The test was carried out by modifying a part of a report (PAIN, 50, 355-363, 1992). Using SD rats, left side hip nerves (L5 and L6) were ligated with a silk thread under pentobarbital anesthesia. The following test was carried out during a period of from on the 7th day to the 14th day after the operation.
Each compound was orally administered, and the von Frey hair (VFH) test was carried out 30 minutes thereafter to calculate the pain threshold value against mechanical nocuous stimulus. The measurement was carried out on the left and right hind legs.
The significant difference test was carried out using the Dunnett method on respective left and right legs between the control group and compound-administered group.

Structure (SMILES) | IC50 [1] [µM] | also measured
CN(CC(C)(C)C)C(=O)c1cn2c(nc3ccc(CNC4COC4)cc32)s1 [Example 6, N-Methyl-N-neopentyl-6-[(oxetan-3-ylamino)methyl]thiazolo[3,2-a]benzimidazole-2-carboxamide 1.5 Fumarate] | 0.002 | –
CN(CC1OCCO1)C(=O)c1cn2c(nc3ccc(CNC4COC4)cc32)s1 [Example 31, N-(1,3-Dioxolan-2-ylmethyl)-N-methyl-6-[(oxetan-3-ylamino)methyl]thiazolo[3,2-a]benzimidazole-2-carboxamide] | 0.043 | –
CN(CC(C)(C)C)C(=O)c1cn2c(nc3ccc(CNC[C@@H]4CCCO4)cc32)s1 [Example 11, N-Methyl-N-neopentyl-6-({[((S)-tetrahydro-2-furfuryl)methyl]amino}methyl)thiazolo[3,2-a]benzimidazole-2-carboxamide Dihydrochloride] | 0.003 | –
CC(C)(C)CNC(=O)c1cn2c(nc3ccc(CNCC4OCCO4)cc32)s1 [Example 26, 6-{[(1,3-Dioxolan-2-ylmethyl)amino]methyl}-N-neopentylthiazolo[3,2-a]benzimidazole-2-carboxamide dihydrochloride] | 0.008 | –
CC(C)(C)CNC(=O)c1cn2c(nc3ccc(CN[C@@H]4CCOC4)cc32)s1 [Example 23, (R)-N-Neopentyl-6-{[(tetrahydro-3-furyl)amino]methyl}thiazolo[3,2-a]benzimidazole-2-carboxamide dihydrochloride] | 0.03 | –
CN(CC(C)(C)C)C(=O)c1cn2c(nc3ccc(CNCC4OCCO4)cc32)s1 [Example 12, 6-{[(1,3-Dioxolan-2-ylmethyl)amino]methyl}-N-methyl-N-neopentylthiazolo[3,2-a]benzimidazole-2-carboxamide dihydrochloride] | – | oral activity [2]: effective; gene mutation inducing ability [3]: negative
CN(CC(C)(C)C)C(=O)c1cn2c(nc3ccc(CNC4CCOCC4)cc32)s1 [Example 15, N-Methyl-N-neopentyl-6-{[(tetrahydro-2H-pyran-4-yl)amino]methyl}thiazolo[3,2-a]benzimidazole-2-carboxamide dihydrochloride] | 0.026 | efficacy upon the threshold value reduction in the operated side [4]: showed their efficacy
CN(CC(C)(C)C)C(=O)c1cn2c(nc3ccc(CNCC4CCOCC4)cc32)s1 [Example 17, N-Methyl-N-neopentyl-6-({[(tetrahydro-2H-pyran-4-yl)methyl]amino}methyl)thiazolo[3,2-a]benzimidazole-2-carboxamide dihydrochloride] | 0.006 | efficacy upon the threshold value reduction in the operated side [4]: showed their efficacy
CN(CC1OCCO1)C(=O)c1cn2c(nc3ccc(CNCC4OCCO4)cc32)s1 [Example 37, N-(1,3-Dioxolan-2-ylmethyl)-6-{[(1,3-dioxolan-2-ylmethyl)amino]methyl}-N-methylthiazolo[3,2-a]benzimidazole-2-carboxamide dihydrochloride] | 0.008 | –
CN(CC(C)(C)C)C(=O)c1cn2c(nc3ccc(CNCC4(C)COC4)cc32)s1 [Example 7, N-Methyl-6-({[(3-methyloxetan-3-yl)methyl]amino}methyl)-N-neopentylthiazolo[3,2-a]benzimidazole-2-carboxamide] | 0.009 | –
CN(CC1OCCO1)C(=O)c1cn2c(nc3ccc(CNCC4CCOCC4)cc32)s1 [Example 39, N-(1,3-Dioxolan-2-ylmethyl)-N-methyl-6-({[(tetrahydro-2H-pyran-4-yl)methyl]amino}methyl)thiazolo[3,2-a]benzimidazole-2-carboxamide dihydrochloride] | 0.026 | –
CN(CC1OCCO1)C(=O)c1cn2c(nc3ccc(CNC[C@H]4CCCO4)cc32)s1 [Example 35, N-(1,3-Dioxolan-2-ylmethyl)-N-methyl-6-({[((R)-tetrahydro-2-furyl)methyl]amino}methyl)thiazolo[3,2-a]benzimidazole-2-carboxamide dihydrochloride] | 0.012 | –
CC(C)(C)CNC(=O)c1cn2c(nc3ccc(CNCC4CCOCC4)cc32)s1 [Example 28, N-Neopentyl-6-({[(tetrahydro-2H-pyran-4-yl)methyl]amino}methyl)thiazolo[3,2-a]benzimidazole-2-carboxamide dihydrochloride] | 0.048 | efficacy upon the threshold value reduction in the operated side [4]: showed their efficacy
CN(CC1OCCO1)C(=O)c1cn2c(nc3ccc(CN[C@@H]4CCOC4)cc32)s1 [Example 34, N-(1,3-Dioxolan-2-ylmethyl)-N-methyl-6-{[(R)-(tetrahydro-3-furyl)amino]methyl}thiazolo[3,2-a]benzimidazole-2-carboxamide dihydrochloride] | 0.037 | –
CC(C)(C)CNC(=O)c1cn2c(nc3ccc(CNC[C@H]4CCCO4)cc32)s1 [Example 24, (R)-N-Neopentyl-6-({[(tetrahydro-2-furyl)methyl]amino}methyl)thiazolo[3,2-a]benzimidazole-2-carboxamide dihydrochloride] | 0.011 | –
